Results on 4 compounds are retold here after patent US10457707B2, “Substituted urea depsipeptide analogs as activators of the CLPP endopeptidase” (priority 2015, dated 2019).

Test in all cases: Minimal inhibitory concentration assay
Common to all, as to format: cell-based

Experiment [1] concerns Staphylococcus aureus, USA 300. As to conditions: USA300, read-out: Minimal Inhibitory Concentrations S. aureus USA 300. The method in brief: (§1)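 Paired MICs against USA 300 and its ClpP-inactivated counterpart test whether killing runs through ClpP. All strains: two-fold broth dilutions from 200 μM final, ~10^5 cfu/mL inoculum, overnight at 37 °C in air, lowest growth-free concentration read by eye.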

Experiment [2] has as its system Staphylococcus aureus, USA 300 wherein ClpP is inactivated. In short, it runs like this: as §1
Experiment [3] concerns Streptococcus pneumoniae, R6. The note with it: read-out: Minimal Inhibitory Concentrations S. pneumoniae R6. The method in brief:
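Microbroth dilution with two-fold serial compound dilutions in broth, incubated aerobically overnight at 37° C. MIC taken as the lowest concentration preventing bacterial growth.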

Converted amounts (≈) assume the structure as drawn. *1 amine or outer side, *2 acyl side, *3 side chain or, on linkers, in order; H or OH if unused. Where a SMILES comes first, the peptide text is derived from it. Bridges are numbered along the chain shown (N, C = ends). [ ]: non-standard residue; d: D form. The star is where a group is joined. Phe(3,5-F2) = N[C@@H](Cc1cc(F)cc(F)c1)C(=O)O; Morpholine(3S-CO) = O=C(O)[C@@H]1COCCN1; Pro(4R-Me) = C[C@H]1CN[C@H](C(=O)O)C1; NMeaThr = CN[C@H](C(=O)O)[C@H](C)O; Hyp = O=C(O)[C@@H]1C[C@@H](O)CN1; NH(4-Et-phenyl) = CCc1ccc(N*)cc1; NH(4-Me-phenyl) = Cc1ccc(N*)cc1; aThr = C[C@H](O)[C@H](N)C(=O)O; Pip = O=C(O)[C@@H]1CCCCN1; CO = O=C([*:1])[*:2] Bounds are passed on as bounds.

For `Cc1ccc(NC(=O)N[C@@H](Cc2cc(F)cc(F)c2)C(=O)N[C@@H]2C(=O)N3CCC[C@H]3C(=O)N(C)[C@@H]([C@H](C)O)C(=O)N[C@@H](C)C(=O)N3C[C@H](C)C[C@H]3C(=O)O[C@H]2C)cc1` [Compound 208, (S)-3-(3,5-difluorophenyl)-N-((2R,6S,9S,11aS,17S,18S,20aS)-9-((S)-1-hydroxyethyl)-2,6,10,18-tetramethyl-5,8,11,16,20-pentaoxohexadecahydro-1H,5H,16H-dipyrrolo[2,1-c:2′,1′-l][1]oxa[4,7,10,13]tetraazacyclohexadecin-17-yl)-2-(3-(p-tolyl)ureido)propanamide] ({NH(4-Me-phenyl)-CO}-[Phe(3,5-F2)][aThr]P[NMeaThr]A[Pro(4R-Me)]; ester 2-C), the MIC was determined as 0.1 µM (≈ 0.0812 µg/mL) in experiment [1] and 0.02 µM (≈ 0.0162 µg/mL) in experiment [3]. For the same compound, the “Minimal Inhibitory Concentrations S. aureus USA 300 ΔClpP” value in experiment [2] is 200 µM.

On to `Cc1ccc(NC(=O)N[C@@H](Cc2cc(F)cc(F)c2)C(=O)N[C@@H]2C(=O)N3CCC[C@H]3C(=O)N3CCCC[C@H]3C(=O)N[C@@H](C)C(=O)N3C[C@H](C)C[C@H]3C(=O)O[C@H]2C)cc1` [Compound 209, (S)-3-(3,5-difluorophenyl)-2-(3-(p-tolyl)ureido)-N-((2R,6S,8aS,14aS,20S,21S,23aS)-2,6,21-trimethyl-5,8,14,19,23-pentaoxooctadecahydro-1H,5H,14H,19H-pyrido[2,1-i]dipyrrolo[2,1-c:2′,1′-l][1]oxa[4,7,10,13]tetraazacyclohexadecin-20-yl)propanamide] ({NH(4-Me-phenyl)-CO}-[Phe(3,5-F2)][aThr]P[Pip]A[Pro(4R-Me)]; ester 2-C), for which the MIC in experiment [1] and in experiment [3] was 0.05 µM (≈ 0.0404 µg/mL) throughout. Moreover, the “Minimal Inhibitory Concentrations S. aureus USA 300 ΔClpP” value in experiment [2] was found to be 100 µM.

In the case of `Cc1ccc(NC(=O)N[C@@H](Cc2cc(F)cc(F)c2)C(=O)N[C@@H]2C(=O)N3CCC[C@H]3C(=O)N3CCOC[C@H]3C(=O)N[C@@H](C)C(=O)N3C[C@H](C)C[C@H]3C(=O)O[C@H]2C)cc1` [Compound 210, (S)-3-(3,5-difluorophenyl)-2-(3-(p-tolyl)ureido)-N-((6aS,12S,13S,15aS,17R,21S,23aS)-13,17,21-trimethyl-6,11,15,20,23-pentaoxooctadecahydro-6H,11H,15H-[1,4]oxazino[3,4-i]dipyrrolo[2,1-c:2′,1′-l][1]oxa[4,7,10,13]tetraazacyclohexadecin-12-yl)propanamide] ({NH(4-Me-phenyl)-CO}-[Phe(3,5-F2)][aThr]P[Morpholine(3S-CO)]A[Pro(4R-Me)]; ester 2-C), the results for the MIC in experiment [1] and in experiment [3] were 0.006 µM (≈ 0.00486 µg/mL) and 0.002 µM (≈ 0.00162 µg/mL), respectively. Also, in experiment [2], the “Minimal Inhibitory Concentrations S. aureus USA 300 ΔClpP” value is more than 200 µM.

As to `CCc1ccc(NC(=O)N[C@@H](Cc2cc(F)cc(F)c2)C(=O)N[C@@H]2C(=O)N3C[C@H](O)C[C@H]3C(=O)N3CCCC[C@H]3C(=O)N[C@@H](C)C(=O)N3C[C@H](C)C[C@H]3C(=O)O[C@H]2C)cc1` [Compound 211, (S)-3-(3,5-difluorophenyl)-2-(3-(4-ethylphenyl)ureido)-N-((2R,6S,8aS,14aS,16R,20S,21S,23aS)-16-hydroxy-2,6,21-trimethyl-5,8,14,19,23-pentaoxooctadecahydro-1H,5H,14H,19H-pyrido[2,1-i]dipyrrolo[2,1-c:2′,1′-l][1]oxa[4,7,10,13]tetraazacyclohexadecin-20-yl)propanamide] ({NH(4-Et-phenyl)-CO}-[Phe(3,5-F2)][aThr][Hyp][Pip]A[Pro(4R-Me)]; ester 2-C), the MIC worked out at 0.04 µM (≈ 0.0335 µg/mL) in experiment [1] and 0.005 µM (≈ 0.00419 µg/mL) in experiment [3]. Further, the “Minimal Inhibitory Concentrations S. aureus USA 300 ΔClpP” value in experiment [2] is more than 200 µM.
